This test has as its target CDK7 (Homo sapiens, UniProt P50613). As to the kind of experiment: LANCE TR-FRET in vitro kinase assay (U-Light-MBP peptide, […] ATP, […] min; […] at […] min, […] at […] min); bioTHZ1 competition pull-down target occupancy in MOLM13 cells. The format is biochemical. (Time-resolved FRET reads energy transfer from a long-lived donor to a nearby acceptor.)

This note sets out measurements from PMC10386772, “Novel covalent CDK7 inhibitor potently induces apoptosis in acute myeloid leukemia and synergizes with Venetoclax” (Journal of Experimental & Clinical Cancer Research : CR, 2023).

By IC50 is commonly meant the concentration at which inhibition is half-maximal. Read a low IC50 as greater potency.

Sequence of CDK7 (P50613 2-346): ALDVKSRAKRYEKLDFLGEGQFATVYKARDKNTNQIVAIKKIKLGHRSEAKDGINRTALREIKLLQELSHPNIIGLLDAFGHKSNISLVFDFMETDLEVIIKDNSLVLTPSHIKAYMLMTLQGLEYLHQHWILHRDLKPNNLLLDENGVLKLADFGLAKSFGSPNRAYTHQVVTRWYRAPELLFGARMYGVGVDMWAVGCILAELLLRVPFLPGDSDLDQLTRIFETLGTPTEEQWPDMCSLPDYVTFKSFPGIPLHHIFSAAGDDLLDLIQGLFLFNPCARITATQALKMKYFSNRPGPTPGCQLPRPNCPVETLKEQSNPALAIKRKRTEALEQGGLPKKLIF

Substance XL102 registered an IC50 of 0.9 nM.
